Assay results from ChEMBL document CHEMBL3120141, “Discovery of (1R,6S)-5-[4-(1-cyclobutyl-piperidin-4-yloxy)-phenyl]-3,4-diaza-bicyclo[4.1.0]hept-4-en-2-one (R,S-4a): histamine H(3) receptor inverse agonist demonstrating potent cognitive enhancing and wake promoting activity” (Bioorg Med Chem Lett, 2014).
Blank lines part the entries; values can stand above or below the compound they belong to.

Key:
Homo sapiens [1] = species on record: Homo sapiens; experiment: Selectivity ratio for human histamine H3 receptor over human histamine H4 receptor
Homo sapiens [2] = species on record: Homo sapiens; experiment: Selectivity ratio for human histamine H3 receptor over human histamine H2 receptor
Homo sapiens [3] = species on record: Homo sapiens; experiment: Selectivity ratio for human histamine H3 receptor over human histamine H1 receptor
Histamine H3 receptor [4] = biological target: Histamine H3 receptor (Rattus norvegicus, UniProt Q9QYN8); experiment: Displacement of [3H]NAMH from rat histamine H3 receptor transfected in CHO cells; type: cell-based
Histamine H3 receptor (Rattus norvegicus, UniProt Q9QYN8), sequence (Q9QYN8 whole entry): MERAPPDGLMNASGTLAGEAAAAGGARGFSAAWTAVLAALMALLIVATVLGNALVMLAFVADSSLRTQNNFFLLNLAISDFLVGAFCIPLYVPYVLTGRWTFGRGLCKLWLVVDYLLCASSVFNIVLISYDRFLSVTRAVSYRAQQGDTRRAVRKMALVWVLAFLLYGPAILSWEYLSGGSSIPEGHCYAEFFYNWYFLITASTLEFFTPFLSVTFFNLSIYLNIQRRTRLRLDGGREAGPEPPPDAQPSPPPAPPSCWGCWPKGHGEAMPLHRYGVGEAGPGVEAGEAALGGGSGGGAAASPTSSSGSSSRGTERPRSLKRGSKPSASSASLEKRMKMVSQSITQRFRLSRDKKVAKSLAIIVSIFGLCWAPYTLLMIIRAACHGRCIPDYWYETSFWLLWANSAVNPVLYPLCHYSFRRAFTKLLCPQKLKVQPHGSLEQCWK

Histamine H3 receptor [5] = biological target: T1, Histamine H3 receptor (Homo sapiens, UniProt Q9Y5N1); experiment: Displacement of [3H]NAMH from human histamine H3 receptor transfected in CHO cells; type: cell-based
T1 sequence (Q9Y5N1 whole entry): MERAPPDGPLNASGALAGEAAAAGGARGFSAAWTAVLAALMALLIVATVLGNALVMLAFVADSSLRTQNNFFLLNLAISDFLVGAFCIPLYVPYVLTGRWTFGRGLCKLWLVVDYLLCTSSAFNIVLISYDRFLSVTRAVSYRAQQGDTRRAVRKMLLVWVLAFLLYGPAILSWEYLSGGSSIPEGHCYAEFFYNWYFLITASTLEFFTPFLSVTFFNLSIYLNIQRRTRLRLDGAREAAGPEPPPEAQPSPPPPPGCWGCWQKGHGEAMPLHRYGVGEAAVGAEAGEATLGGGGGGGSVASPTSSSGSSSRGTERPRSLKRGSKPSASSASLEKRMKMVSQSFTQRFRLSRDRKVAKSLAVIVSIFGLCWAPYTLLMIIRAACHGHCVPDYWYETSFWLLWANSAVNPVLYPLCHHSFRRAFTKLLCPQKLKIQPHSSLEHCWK

Liver microsome [6] = experiment: Metabolic stability in dog liver microsomes; type: ADME, Canis lupus familiaris
Liver microsome [7] = experiment: Metabolic stability in human liver microsomes; type: ADME
[8] = Metabolic stability in mouse liver microsomes; type: ADME, Microsome
[9] = Oral bioavailability in rat; type: ADME, organism-based; conditions: in vivo
Liver microsome [10] = experiment: Metabolic stability in rat liver microsomes; type: ADME
Cytochrome P450 3A4 = Cytochrome P450 3A4 (Homo sapiens, UniProt P08684); experiment: Inhibition of CYP3A4 (unknown origin); type: ADME
Cytochrome P450 3A4, sequence (P08684 whole entry): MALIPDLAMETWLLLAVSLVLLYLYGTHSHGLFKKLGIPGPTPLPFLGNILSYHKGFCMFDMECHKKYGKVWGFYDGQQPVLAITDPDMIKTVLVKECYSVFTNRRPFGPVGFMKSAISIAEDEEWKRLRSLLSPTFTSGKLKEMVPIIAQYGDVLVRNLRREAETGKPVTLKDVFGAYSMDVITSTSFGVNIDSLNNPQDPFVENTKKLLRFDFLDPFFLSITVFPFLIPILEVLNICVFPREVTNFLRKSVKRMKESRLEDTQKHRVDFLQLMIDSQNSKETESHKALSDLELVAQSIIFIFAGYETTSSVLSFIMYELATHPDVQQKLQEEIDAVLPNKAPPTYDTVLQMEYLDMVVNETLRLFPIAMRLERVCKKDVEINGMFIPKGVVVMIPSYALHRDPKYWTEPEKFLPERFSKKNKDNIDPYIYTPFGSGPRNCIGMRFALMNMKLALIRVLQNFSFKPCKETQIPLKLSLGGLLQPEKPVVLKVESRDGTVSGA

Cytochrome P450 2D6 = Cytochrome P450 2D6 (Homo sapiens, UniProt P10635); experiment: Inhibition of CYP2D6 (unknown origin); type: ADME
Cytochrome P450 2D6, sequence (P10635 whole entry): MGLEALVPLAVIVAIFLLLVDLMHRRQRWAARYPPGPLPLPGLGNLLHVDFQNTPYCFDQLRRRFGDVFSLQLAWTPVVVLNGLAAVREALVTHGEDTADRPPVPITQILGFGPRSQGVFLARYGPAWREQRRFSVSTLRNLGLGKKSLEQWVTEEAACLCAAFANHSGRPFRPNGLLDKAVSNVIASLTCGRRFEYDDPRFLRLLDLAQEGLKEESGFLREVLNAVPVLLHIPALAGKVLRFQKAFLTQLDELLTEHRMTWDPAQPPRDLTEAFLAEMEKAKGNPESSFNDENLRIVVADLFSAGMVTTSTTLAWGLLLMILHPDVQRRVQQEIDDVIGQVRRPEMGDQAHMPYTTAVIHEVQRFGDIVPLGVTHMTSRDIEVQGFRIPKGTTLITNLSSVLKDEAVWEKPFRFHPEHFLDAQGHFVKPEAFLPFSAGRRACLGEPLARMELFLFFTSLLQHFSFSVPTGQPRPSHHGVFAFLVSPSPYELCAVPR

Cytochrome P450 2C9 = Cytochrome P450 2C9 (Homo sapiens, UniProt P11712); experiment: Inhibition of CYP2C9 (unknown origin); type: ADME
Cytochrome P450 2C9, sequence (P11712 whole entry): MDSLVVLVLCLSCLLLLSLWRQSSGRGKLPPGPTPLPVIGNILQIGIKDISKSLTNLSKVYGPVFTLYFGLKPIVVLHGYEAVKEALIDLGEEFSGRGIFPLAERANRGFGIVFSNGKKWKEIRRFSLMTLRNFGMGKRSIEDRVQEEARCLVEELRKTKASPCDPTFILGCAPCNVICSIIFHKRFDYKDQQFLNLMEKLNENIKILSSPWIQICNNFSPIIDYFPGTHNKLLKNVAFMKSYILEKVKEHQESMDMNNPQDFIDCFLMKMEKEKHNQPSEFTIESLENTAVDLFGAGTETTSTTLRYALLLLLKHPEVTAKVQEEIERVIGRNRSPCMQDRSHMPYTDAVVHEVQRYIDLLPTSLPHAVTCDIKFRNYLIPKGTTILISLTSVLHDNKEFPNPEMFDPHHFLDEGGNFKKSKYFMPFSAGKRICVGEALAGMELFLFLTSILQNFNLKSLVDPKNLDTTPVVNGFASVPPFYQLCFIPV

Cytochrome P450 2C19 = Cytochrome P450 2C19 (Homo sapiens, UniProt P33261); experiment: Inhibition of CYP2C19 (unknown origin); type: ADME
Cytochrome P450 2C19, sequence (P33261 whole entry): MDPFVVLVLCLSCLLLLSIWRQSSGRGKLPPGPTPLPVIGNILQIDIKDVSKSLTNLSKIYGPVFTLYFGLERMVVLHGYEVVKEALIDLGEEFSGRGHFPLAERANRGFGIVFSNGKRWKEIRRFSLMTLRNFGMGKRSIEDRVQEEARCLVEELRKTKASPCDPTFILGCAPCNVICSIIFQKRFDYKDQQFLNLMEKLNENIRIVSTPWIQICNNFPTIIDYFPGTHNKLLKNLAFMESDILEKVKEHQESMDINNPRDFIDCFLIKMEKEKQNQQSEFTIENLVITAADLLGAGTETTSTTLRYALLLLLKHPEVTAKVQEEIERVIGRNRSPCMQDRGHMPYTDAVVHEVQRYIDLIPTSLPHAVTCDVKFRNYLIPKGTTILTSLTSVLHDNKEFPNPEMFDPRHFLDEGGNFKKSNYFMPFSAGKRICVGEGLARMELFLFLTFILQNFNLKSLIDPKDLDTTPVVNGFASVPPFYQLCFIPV

Cytochrome P450 1A2 = biological target: T2, Cytochrome P450 1A2 (Homo sapiens, UniProt P05177); experiment: Inhibition of CYP1A2 (unknown origin); type: ADME
T2 sequence (P05177 whole entry): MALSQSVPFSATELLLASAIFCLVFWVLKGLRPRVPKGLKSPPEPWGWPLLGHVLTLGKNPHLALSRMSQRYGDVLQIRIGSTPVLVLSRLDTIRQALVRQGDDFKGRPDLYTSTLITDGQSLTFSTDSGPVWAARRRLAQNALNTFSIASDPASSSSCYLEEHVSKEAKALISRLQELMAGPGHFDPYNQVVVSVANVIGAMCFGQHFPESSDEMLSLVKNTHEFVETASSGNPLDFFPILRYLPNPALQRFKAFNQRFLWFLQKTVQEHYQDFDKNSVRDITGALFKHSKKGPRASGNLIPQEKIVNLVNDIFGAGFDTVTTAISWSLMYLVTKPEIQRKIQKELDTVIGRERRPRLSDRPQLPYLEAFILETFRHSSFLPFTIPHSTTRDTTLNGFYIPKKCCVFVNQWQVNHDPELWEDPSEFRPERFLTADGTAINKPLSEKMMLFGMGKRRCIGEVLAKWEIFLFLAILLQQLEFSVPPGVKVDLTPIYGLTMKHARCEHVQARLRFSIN

Histamine H3 receptor [11] = biological target: T1, Histamine H3 receptor; experiment: Inverse agonist activity at human histamine H3 receptor by [35S]GTPgammaS binding assay; type: functional
[12] = Ratio of drug uptake in brain to plasma in rat at 10 mg/kg, ip after 6 hrs; type: ADME, organism-based; parameters: dose 10 mg/kg, route intraperitoneal; conditions: read-out: BPR
Rattus norvegicus [13] = experiment: Oral bioavailability in rat at 5 mg/kg; type: ADME, organism-based; conditions: in vivo
[14] = Cmax in rat at 5 mg/kg, po; type: ADME, organism-based; parameters: dose 5 mg/kg, route oral; conditions: in vivo
Rattus norvegicus [15] = experiment: AUC in rat at 5 mg/kg, po; type: ADME, organism-based, Plasma; parameters: dose 5 mg/kg, route oral; conditions: in vivo
[16] = Volume of distribution at steady state in rat at 1 mg/kg, iv; type: ADME, organism-based; parameters: dose 1 mg/kg, route intravenous; conditions: in vivo, read-out: Vdss
[17] = Terminal half life in rat at 1 mg/kg, iv; type: ADME, organism-based; parameters: dose 1 mg/kg, route intravenous; conditions: in vivo, read-out: beta t1/2 (converted)
[18] = biological target: Voltage-gated inwardly rectifying potassium channel KCNH2 (Homo sapiens, UniProt Q12809); experiment: Inhibition of human ERG channel by patch clamp technique
Voltage-gated inwardly rectifying potassium channel KCNH2, sequence (Q12809 whole entry): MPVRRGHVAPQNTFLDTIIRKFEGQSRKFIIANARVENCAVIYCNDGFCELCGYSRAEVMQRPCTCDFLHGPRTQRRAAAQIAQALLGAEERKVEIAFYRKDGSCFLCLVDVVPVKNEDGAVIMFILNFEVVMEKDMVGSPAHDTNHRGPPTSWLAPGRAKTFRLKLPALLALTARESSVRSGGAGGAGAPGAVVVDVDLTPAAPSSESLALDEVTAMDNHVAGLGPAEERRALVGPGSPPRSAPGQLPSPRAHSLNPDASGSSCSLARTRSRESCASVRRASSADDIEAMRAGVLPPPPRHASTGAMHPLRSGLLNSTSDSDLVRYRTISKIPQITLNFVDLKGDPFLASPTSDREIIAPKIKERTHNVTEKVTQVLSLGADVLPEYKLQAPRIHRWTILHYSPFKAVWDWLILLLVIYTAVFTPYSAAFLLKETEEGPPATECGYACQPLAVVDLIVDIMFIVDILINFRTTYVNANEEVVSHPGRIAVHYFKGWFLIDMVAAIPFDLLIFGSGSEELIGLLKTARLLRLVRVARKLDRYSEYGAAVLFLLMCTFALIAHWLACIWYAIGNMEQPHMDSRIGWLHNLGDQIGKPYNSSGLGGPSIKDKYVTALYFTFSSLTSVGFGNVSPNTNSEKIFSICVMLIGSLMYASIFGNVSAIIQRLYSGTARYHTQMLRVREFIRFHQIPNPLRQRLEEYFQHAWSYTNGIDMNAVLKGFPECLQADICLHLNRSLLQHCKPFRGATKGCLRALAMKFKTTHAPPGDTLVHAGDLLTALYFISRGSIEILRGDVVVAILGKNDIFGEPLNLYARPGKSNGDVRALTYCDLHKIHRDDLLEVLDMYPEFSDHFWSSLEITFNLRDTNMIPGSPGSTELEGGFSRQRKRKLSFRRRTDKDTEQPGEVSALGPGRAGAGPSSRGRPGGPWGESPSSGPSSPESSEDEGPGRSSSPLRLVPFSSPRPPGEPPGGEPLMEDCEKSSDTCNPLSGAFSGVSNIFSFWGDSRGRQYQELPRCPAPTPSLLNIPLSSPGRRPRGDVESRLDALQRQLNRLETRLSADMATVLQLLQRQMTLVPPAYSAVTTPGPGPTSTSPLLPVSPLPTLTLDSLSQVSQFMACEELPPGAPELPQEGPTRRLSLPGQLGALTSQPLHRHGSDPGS

[19] = biological target: Sodium-dependent dopamine transporter (Homo sapiens) (UniProt Q01959); experiment: Inhibition of dopamine transporter (unknown origin) at 10 uM
[20] = biological target: Histamine H4 receptor (Homo sapiens) (UniProt Q9H3N8); experiment: Inhibition of human histamine H4 receptor at 10 uM
[21] = biological target: Histamine H1 receptor (Homo sapiens) (UniProt P35367); experiment: Inhibition of human histamine H1 receptor at 10 uM
Histamine H1 receptor (Homo sapiens), sequence (P35367 whole entry): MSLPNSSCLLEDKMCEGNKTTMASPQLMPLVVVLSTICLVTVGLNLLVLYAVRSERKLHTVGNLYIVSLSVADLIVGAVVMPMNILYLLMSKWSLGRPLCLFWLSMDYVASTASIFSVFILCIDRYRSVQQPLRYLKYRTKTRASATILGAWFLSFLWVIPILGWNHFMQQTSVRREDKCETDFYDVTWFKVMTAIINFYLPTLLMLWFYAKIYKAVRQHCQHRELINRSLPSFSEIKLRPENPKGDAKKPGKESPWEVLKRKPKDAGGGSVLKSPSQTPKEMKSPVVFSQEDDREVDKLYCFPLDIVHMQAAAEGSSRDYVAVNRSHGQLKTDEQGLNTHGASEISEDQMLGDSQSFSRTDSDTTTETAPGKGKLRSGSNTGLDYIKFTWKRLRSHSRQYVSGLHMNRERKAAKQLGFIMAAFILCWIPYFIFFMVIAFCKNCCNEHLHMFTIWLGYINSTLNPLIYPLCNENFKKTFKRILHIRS

[22] = biological target: Histamine H2 receptor (Homo sapiens) (UniProt P25021); experiment: Inhibition of human histamine H2 receptor at 10 uM
Histamine H2 receptor (Homo sapiens), sequence (P25021 whole entry): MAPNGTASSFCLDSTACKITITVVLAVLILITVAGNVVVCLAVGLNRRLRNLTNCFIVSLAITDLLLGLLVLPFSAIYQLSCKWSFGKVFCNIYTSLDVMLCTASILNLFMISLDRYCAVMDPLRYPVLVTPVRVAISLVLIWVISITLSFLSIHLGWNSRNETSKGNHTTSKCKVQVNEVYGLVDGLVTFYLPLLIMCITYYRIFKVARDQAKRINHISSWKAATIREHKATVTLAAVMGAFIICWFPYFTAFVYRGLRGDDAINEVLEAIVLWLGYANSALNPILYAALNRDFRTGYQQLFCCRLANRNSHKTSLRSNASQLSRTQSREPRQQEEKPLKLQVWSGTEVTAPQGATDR

[23] = Half life in human liver microsomes; type: ADME
[24] = Half life in monkey liver microsomes; type: ADME, Macaca mulatta, Microsome; conditions: rhesus monkey
[25] = Half life in rat liver microsomes; type: ADME
[26] = Half life in dog liver microsomes; type: ADME, Canis lupus familiaris
[27] = Half life in mouse liver microsomes; type: ADME, Microsome

Ki (Histamine H3 receptor [4]): 8.4 nM
Ki (Histamine H3 receptor [5]): 4.7 nM
Structure (SMILES): O=C1NN=C(c2ccc(OC3CCN(C4CCC4)CC3)cc2)C2CC12 (racemic)

EC50 (Histamine H3 receptor [11]): 0.5 nM
Kp at 6 h [12]: 5
F (Rattus norvegicus [13]): 66%
Cmax [14]: 649 ng/mL
AUC (Rattus norvegicus [15]): 5144 ng·h/mL
Vd [16]: 3 L/kg
half-life [17]: 96 min
inhibition [19]: 63%
inhibition [20]: < 10%
inhibition [21]: < 10%
inhibition [22]: < 10%
half-life [23]: > 40 min
half-life [24]: > 40 min
half-life [25]: > 40 min
half-life [26]: > 40 min
half-life [27]: > 40 min
IC50 (Cytochrome P450 3A4): > 30000 nM
IC50 (Cytochrome P450 2D6): > 30000 nM
IC50 (Cytochrome P450 2C9): > 30000 nM
IC50 (Cytochrome P450 2C19): > 30000 nM
IC50 (Cytochrome P450 1A2): > 30000 nM
Ki (Histamine H3 receptor [4]): 12 nM
Ki (Histamine H3 receptor [5]): 6.8 nM
Structure (SMILES): O=C1NN=C(c2ccc(OC3CCN(C4CCC4)CC3)cc2)[C@@H]2C[C@H]12
IC50 [18]: 6000 nM

Continued, compound first:

Structure (SMILES): CC(C)N1CCC(Oc2ccc(C3=NN(C)C(=O)C4CC34)cc2)CC1 (racemic)
Selectivity ratio (Homo sapiens [1]): > 1000
Selectivity ratio (Homo sapiens [2]): > 1000
Selectivity ratio (Homo sapiens [3]): > 1000
Ki (Histamine H3 receptor [4]): 17 nM
Ki (Histamine H3 receptor [5]): 4 nM

Structure (SMILES): CN1N=C(c2ccc(OC3CCN(C4CCC4)CC3)cc2)C2CC2C1=O (racemic)
Stability (Liver microsome [6]): Stable
Stability (Liver microsome [7]): Stable
Stability [8]: Stable
bioavailability [9]: 6%
Stability (Liver microsome [10]): Stable
Selectivity ratio (Homo sapiens [1]): > 1000
Selectivity ratio (Homo sapiens [2]): > 1000
Selectivity ratio (Homo sapiens [3]): > 1000
Ki (Histamine H3 receptor [4]): 6.9 nM
Ki (Histamine H3 receptor [5]): 4 nM

Structure (SMILES): O=C1NN=C(c2ccc(OC3CCN(C4CCCC4)CC3)cc2)C2CC12 (racemic)
inhibition (INH) (Cytochrome P450 3A4; human): Not Active
inhibition (INH) (Cytochrome P450 2D6; human): Not Active
inhibition (INH) (Cytochrome P450 2C9; human): Not Active
inhibition (INH) (Cytochrome P450 2C19; human): Not Active
inhibition (INH) (Cytochrome P450 1A2; human): Not Active
Stability (Liver microsome [6]): Stable
Stability (Liver microsome [7]): Stable
Stability [8]: Stable
Stability (Liver microsome [10]): Stable
Selectivity ratio (Homo sapiens [1]): > 1000
Selectivity ratio (Homo sapiens [2]): > 1000
Selectivity ratio (Homo sapiens [3]): > 1000
Ki (Histamine H3 receptor [4]): 8.1 nM
Ki (Histamine H3 receptor [5]): 3.7 nM

Structure (SMILES): O=C1C2CC2C(c2ccc(OC3CCN(C4CCC4)CC3)cc2)=NN1c1ccc(F)cc1 (racemic)
Selectivity ratio (Homo sapiens [1]): > 1000
Selectivity ratio (Homo sapiens [2]): > 1000
Selectivity ratio (Homo sapiens [3]): > 1000
Ki (Histamine H3 receptor [4]): 6.7 nM
Ki (Histamine H3 receptor [5]): 3.5 nM
